What is called EC50 is the concentration at which the effect is half-maximal.

Like-named read-outs stand apart in the source and are kept apart here.

Consider 17 compounds from US10738062B2, “Chromane-substituted tetracyclic compounds and uses thereof for the treatment of viral diseases” (Merck Sharp & Dohme Corp., priority 2016, dated 2020).

Holding throughout (set-up): species or system Hepatitis C virus
Common to all, as to conditions: replicon RNA by real time PCR, day 3

One assay relates to HCV replicon 1A. Nature of the assay: Cell-based HCV replicon assay (Replicon Assay A), replicon 1A. The protocol:
(§1) To measure cell-based anti-HCV activity of compounds of the present invention, two complimentary assays were employed using various replicons. In the first assay (“Replicon Assay A”), replicon cells were seeded at 2000 cells/well in 384-well 384-well flat bottom tissue culture treated clear bottom plate (Corning 3707) in the presence of the test compound. Various concentrations of test compound, typically in 10 serial dilutions, were added to the assay mixture, with the starting concentration ranging from 333.3 nM to 1.667 nM. The final concentration of DMSO was 0.5%. Fetal bovine serum was 5%, in the assay media. Cells were harvested on day 3 by removing media and washing the cells with a suitable wash buffer. The cells were lysed with the addition of 1× Qiagen lysis buffer (Cat #1062731). The replicon RNA level was measured using real time PCR (TaqMan® EZ RT-PCR, Applied Biosystems 403028) with the following primers and probes: […]
(§2) Cyclophilin RNA was used as endogenous control and was amplified in the same reaction as NS5B (multiplex PCR). The real-time RT-PCR reactions were run on ABI PRISM 7900HT Sequence Detection System using the following program: 50° C. for 2 minutes, 60° C. for 30 minutes, 95° C. for 5 minutes, 40 cycles of 94° C. for 20 sec, 55° C. for 1 minutes.
(§3) The amount of HCV replicon RNA per cell was quantified using a linear regression curve for a known nanogram (ng) amount of HCV replicon total RNA. This was established by plotting the Cycle Threshold values (Ct) from the Neo probe and primer set versus the log (ng) for each HCV replicon total RNA standard. The amount of HCV RNA for each replicon sample was calculated by taking the sample's Ct value, minus the line intercept, divided by the slope of the line. Similarly, the amount of Cyclophilin mRNA per cell was also quantified using a linear regression curve for a known nanogram (ng) amount of HCV replicon total RNA. Again, this was established by plotting the Cycle Threshold values (Ct) from the Cyclophilin probe and primer set versus the log (ng) for each HCV replicon total RNA standard.
(§4) The real-time RT-PCR reactions were run on ABI PRISM 7900HT or Viia7 Sequence Detection System using the following program: 48° C. for 30 minutes, 95° C. for 10 minutes, 40 cycles of 95° C. for 15 sec, 60° C. for 1 minutes. The 50% effective concentration (EC50) was the drug concentration necessary to achieve an increase in the cycle threshold (CT) of 1 over the projected baseline CT.
(§5) Data was obtained for various compounds of the present invention using the methods described in the Example above, and is presented in the table immediately below. EC50 data for replicons 1A, 1AY93H and 2B were obtained using Replicon Assay A and EC50 data for replicon 1B was obtained using Replicon Assay B.
Background: A replicon is a self-replicating genome or part of one, used to study replication in cells.

For another assay, the system named is HCV replicon 2B. The experiment in a line: Cell-based HCV replicon assay (Replicon Assay A), replicon 2B. The protocol: as §1, §2, §3, §4, §5
In a further assay the test system is HCV replicon 1A Y93H. The experiment in a line: Cell-based HCV replicon assay (Replicon Assay A), replicon 1AY93H. The protocol: as §1, §2, §3, §4, §5
Setting [1] is: read-out: EC50 replicon 2B, Replicon Assay A.
Setting [2] is: read-out: EC50 replicon 1A Y93H, Replicon Assay A.
Where [3] appears, read: Hepatitis C virus, 72 h, read-out: EC50 replicon 2B, Replicon Assay A.

On to `COC(=O)N[C@H](C(=O)N1CCC[C@H]1c1ncc(-c2cc(F)c3c(c2)OC(c2ccc4c(c2)CCC(C)(C)O4)n2c-3cc3cc(-c4cnc([C@@H]5CCCN5C(=O)[C@@H](NC(=O)OC)C(C)C)[nH]4)ccc32)[nH]1)C(C)C` (single isomer, unassigned) [Compound 21], for which the EC50 was found to be 0.0015 nM in the assay on HCV replicon 1A (Hepatitis C virus, 72 h); 3.56 nM in the assay on HCV replicon 2B (setting [1]); 7.11 nM in the assay with HCV replicon 1A Y93H (setting [2]).
As to `COC(=O)NC(C(=O)N1CCC[C@H]1c1ncc(-c2ccc3c(c2)cc2n3C(c3ccc4c(c3)CCC(C)O4)Oc3cc(-c4cnc([C@@H]5CCCN5C(=O)[C@@H](NC(=O)OC)C(C)C)[nH]4)cc(F)c3-2)[nH]1)C1C[C@@H](C)O[C@@H](C)C1` (single isomer, unassigned) [Compound 56], the values for the EC50 with HCV replicon 1A, with HCV replicon 2B (setting [1]) and in the assay with HCV replicon 1A Y93H (setting [2]) were 0.0024 nM, 0.288 nM and 0.114 nM, respectively.
Turning to `COC(=O)NC(C(=O)N1CCC[C@H]1c1ncc(-c2ccc3c(c2)cc2n3C(c3ccc4c(c3)CCCO4)Oc3cc(-c4cnc([C@@H]5CCCN5C(=O)[C@@H](NC(=O)OC)C(C)C)[nH]4)cc(C)c3-2)[nH]1)C1C[C@@H](C)O[C@@H](C)C1` (single isomer, unassigned) [Compound 83], the EC50 with HCV replicon 1A (Hepatitis C virus, 72 h) amounted to 0.0039 nM; with HCV replicon 2B (setting [3]), 0.16 nM; in the assay on HCV replicon 1A Y93H (Hepatitis C virus, 72 h, read-out: EC50 replicon 1A Y93H, Replicon Assay A), 0.594 nM.
On to `COC(=O)N[C@H](C(=O)N1CCC[C@H]1c1ncc(-c2cc(F)c3c(c2)OC(c2ccc4c(c2)OC(C)(C)C4)n2c-3cc3cc(-c4cnc([C@@H]5CCCN5C(=O)[C@@H](NC(=O)OC)C(C)C)[nH]4)ccc32)[nH]1)C(C)C` (single isomer, unassigned) [Compound 27], for which the EC50 is 0.0014 nM in the assay on HCV replicon 1A (Hepatitis C virus, 72 h); 1.48 nM in the assay on HCV replicon 2B (setting [1]); 1.08 nM with HCV replicon 1A Y93H (setting [2]).
Regarding `COC(=O)NC(C(=O)N1[C@@H]2C[C@@H]2C[C@H]1c1ncc(-c2ccc3c(c2)cc2n3C(c3ccc4c(c3)OCCC4)Oc3cc(-c4cnc([C@@H]5CCCN5C(=O)[C@@H](NC(=O)OC)C(C)C)[nH]4)cc(F)c3-2)[nH]1)C1C[C@@H](C)O[C@@H](C)C1` (single isomer, unassigned) [Compound 67], the EC50 worked out at 0.0012 nM with HCV replicon 1A (Hepatitis C virus, 72 h); 0.607 nM with HCV replicon 2B (setting [1]); 0.391 nM in the assay on HCV replicon 1A Y93H (setting [2]).
For `COC(=O)N[C@H](C(=O)N1CCC[C@H]1c1ncc(-c2cc(F)c3c(c2)OC(c2ccc4c(c2)CCC(C)(C)O4)n2c-3cc3cc(-c4cnc([C@@H]5CCCN5C(=O)[C@@H](NC(=O)OC)C(C)C)[nH]4)ccc32)[nH]1)C(C)C` (single isomer, unassigned) [Compound 22], the EC50 in the assay with HCV replicon 1A turned out to be 0.0027 nM; in the assay on HCV replicon 2B (setting [1]), 0.93 nM; in the assay on HCV replicon 1A Y93H (setting [2]), 0.162 nM.
`COC(=O)N[C@H](C(=O)N1CCC[C@H]1c1ncc(-c2cc(F)c3c(c2)OC(c2ccc4c(c2)OC(C)(C)CC4)n2c-3cc3cc(-c4cnc([C@@H]5CCCN5C(=O)[C@@H](NC(=O)OC)C(C)C)[nH]4)ccc32)[nH]1)C(C)C` (single isomer, unassigned) [Compound 18]: the EC50 in the assay on HCV replicon 1A (Hepatitis C virus, 72 h) came to 0.0022 nM; in the assay with HCV replicon 2B (setting [1]) it was 0.252 nM; in the assay on HCV replicon 1A Y93H (setting [2]), 0.052 nM.
As for `COC(=O)N[C@H](C(=O)N1CCC[C@H]1c1ncc(-c2cc(F)c3c(c2)OC(c2ccc4c(c2)CCCO4)n2c-3cc3cc(-c4cnc([C@@H]5CCCN5C(=O)[C@@H](NC(=O)OC)C5CCOCC5)[nH]4)ccc32)[nH]1)C(C)C` (single isomer, unassigned) [Compound 36], the EC50 came out at 0.0021 nM in the assay on HCV replicon 1A, 0.416 nM with HCV replicon 2B (setting [1]) and 0.426 nM in the assay on HCV replicon 1A Y93H (setting [2]).
For the compound `COC(=O)NC(C(=O)N1CCC[C@H]1c1ncc(-c2ccc3c(c2)cc2n3C(c3ccc4c(c3)OCCC4)Oc3cc(-c4cnc([C@@H]5CCCN5C(=O)[C@@H](NC(=O)OC)C(C)C)[nH]4)cc(F)c3-2)[nH]1)C1C[C@@H](C)O[C@@H](C)C1` (single isomer, unassigned) [Compound 75], the EC50 with HCV replicon 1A (Hepatitis C virus, 72 h) turned out to be 0.0018 nM; in the assay on HCV replicon 2B (setting [1]) it was 0.296 nM; in the assay with HCV replicon 1A Y93H (setting [2]), 1.27 nM.
In the same order, the values of `COC(=O)N[C@H](C(=O)N1CCC[C@H]1c1ncc(-c2cc(F)c3c(c2)OC(c2ccc4c(c2)CC2CC2(C)O4)n2c-3cc3cc(-c4cnc([C@@H]5CCCN5C(=O)[C@@H](NC(=O)OC)C(C)C)[nH]4)ccc32)[nH]1)C(C)C` (single isomer, unassigned) [Compound 25] are 0.0037 nM, 3.83 nM and 4.67 nM.
With `COC(=O)NC(C(=O)N1CCC[C@H]1c1ncc(-c2ccc3c(c2)cc2n3C(c3ccc4c(c3)OCCC4)Oc3cc(-c4cnc([C@@H]5CCCN5C(=O)[C@@H](NC(=O)OC)C(C)C)[nH]4)cc(F)c3-2)[nH]1)C1C[C@@H](C)O[C@H](C)C1` (single isomer, unassigned) [Compound 77], the EC50 in the assay on HCV replicon 1A (Hepatitis C virus, 72 h) worked out at 0.0015 nM; in the assay with HCV replicon 2B (setting [1]), 0.099 nM; with HCV replicon 1A Y93H (setting [2]), 0.496 nM.
On to `COC(=O)NC(C(=O)N1CCC[C@H]1c1ncc(-c2ccc3c(c2)cc2n3C(c3ccc4c(c3)OCCC4)Oc3cc(-c4cnc([C@@H]5CCCN5C(=O)[C@@H](NC(=O)OC)C(C)C)[nH]4)cc(C)c3-2)[nH]1)C1C[C@@H](C)O[C@@H](C)C1` (single isomer, unassigned) [Compound 85], for which the EC50 in the assay with HCV replicon 1A (Hepatitis C virus, 72 h) amounted to 0.0027 nM; in the assay with HCV replicon 2B (setting [1]), 0.07 nM; in the assay on HCV replicon 1A Y93H (setting [2]), 0.575 nM.
Turning to `COC(=O)N[C@H](C(=O)N1CCC[C@H]1c1ncc(-c2cc(F)c3c(c2)OC(c2ccc4c(c2)CCCO4)n2c-3cc3cc(-c4cnc([C@@H]5CCCN5C(=O)[C@@H](NC(=O)OC)C(C)C)[nH]4)ccc32)[nH]1)C(C)C` (single isomer, unassigned) [Compound 24], the EC50 in the assay with HCV replicon 1A is 0.0016 nM; in the assay on HCV replicon 2B (setting [1]) it was 1.77 nM; with HCV replicon 1A Y93H (setting [2]), 0.282 nM.
In the same order, the values of `COC(=O)NC(C(=O)N1CCC[C@H]1c1ncc(-c2ccc3c(c2)cc2n3C(c3ccc4c(c3)CCCO4)Oc3cc(-c4cnc([C@@H]5CCCN5C(=O)[C@@H](NC(=O)OC)C(C)C)[nH]4)cc(F)c3-2)[nH]1)C1C[C@@H](C)O[C@@H](C)C1` (single isomer, unassigned) [Compound 74] are 0.0025 nM, 0.234 nM and 0.091 nM.
For the compound `COC(=O)N[C@H](C(=O)N1CCC[C@H]1c1ncc(-c2cc(F)c3c(c2)OC(c2ccc4c(c2)CCCO4)n2c-3cc3cc(-c4cnc([C@@H]5C[C@H]6C[C@H]6N5C(=O)[C@@H](NC(=O)OC)C(C)C)[nH]4)ccc32)[nH]1)C(C)C` (single isomer, unassigned) [Compound 45], the EC50 in the assay with HCV replicon 1A worked out at 0.001 nM; in the assay with HCV replicon 2B (setting [3]) it was 5.28 nM; in the assay with HCV replicon 1A Y93H (setting [2]) it was 0.12 nM.
Take `COC(=O)NC(C(=O)N1CCC[C@H]1c1ncc(-c2ccc3c(c2)cc2n3C(c3ccc4c(c3)OC(C)CC4)Oc3cc(-c4cnc([C@@H]5CCCN5C(=O)[C@@H](NC(=O)OC)C(C)C)[nH]4)cc(F)c3-2)[nH]1)C1CCOC(C)(C)C1` (single isomer, unassigned) [Compound 62]: the EC50 stood at 0.0019 nM in the assay with HCV replicon 1A, 0.253 nM with HCV replicon 2B (setting [1]) and 0.516 nM with HCV replicon 1A Y93H (setting [2]).
Consider `COC(=O)N[C@H](C(=O)N1CCC[C@H]1c1ncc(-c2cc(F)c3c(c2)OC(c2ccc4c(c2)CCCO4)n2c-3cc3cc(-c4cnc([C@@H]5CCCN5C(=O)[C@@H](NC(=O)OC)C(C)C)[nH]4)ccc32)[nH]1)C(C)C` (single isomer, unassigned) [Compound 23], for which the EC50 turned out to be 0.002 nM with HCV replicon 1A (Hepatitis C virus, 72 h); 5.17 nM with HCV replicon 2B (setting [1]); 2.62 nM in the assay on HCV replicon 1A Y93H (setting [2]).
